Consider one compound from US12491187B2, “Use of MCT1 inhibitors to enhance insulin sensitivity” (H. LEE MOFFIT CANCER CENTER AND RESEARCH INSTITUTE, INC., priority 2022, dated 2025).

Holding throughout (type): cell-based, murine
The test system of assay [1] is differentiated 3T3-L1 adipocytes. Description: Ki67 expression (confocal microscopy and quantification). Particulars: 1 μM, 24 hr, vs untreated adipocytes. Here is the method:
Confocal Microscopy: Cells were seeded and differentiated on 8 chamber μ-Slides (Ibidi®). Differentiated cells treated with vehicle (DMSO) or 1 μM AZD3965 for 24 hr were fixed in 4% PFA for 10 min at room temperature, permeabilized with 0.1% Triton™ X-100 in PBS and blocked with 3% BSA in PBS for an hr. Cells were subsequently incubated with Ki67 antibody (NBP2-22112, Novus Biologicals) at a 1:500 dilution in PBS 3% BSA overnight at 4° C. Cells were washed with PBS and incubated with goat anti-rabbit Alexa Fluor 647 secondary antibody (Invitrogen) at 1:2000 dilution in PBS 3% BSA for 1 hr. Lipid droplets were stained with BODIPY® (Invitrogen) for 20 min at room temperature according to the manufacturer's recommendations. Nuclei were stained for 20 min at room temperature with 4,6-diamidino-2-phenylindole (DAPI) (Sigma-Aldrich) in PBS 3% BSA, diluted at 1:5000 from a 1 mg/ml stock. Images were acquired on the Leica TCS SP8 laser scanning confocal microscope Leica Microsystems) at a magnification of 630× with 3× zoom. Ki67 Expression Quantification: Slides were prepared as outlined in ‘Confocal Microscopy’, After staining, Ki67 expression was imaged and analyzed on the Cytation 5 Cell Imaging Multi-Mode reader (BioTek Instruments) through the measure of fluorescence intensity and deep red fluorescent (Alexa647) positive pixels. […]

The test system of assay [2] is differentiated 3T3-L1 (WT) cells. Briefly: Immunoblotting of protein expression in differentiated adipocytes. How it is done:
Immunoblotting: For the collection of membrane bound proteins (i.e., MCT1), cells were lysed and the membrane fraction of protein was isolated as previously described (Sadler, J B A, et al. Preparation of a total membrane fraction from 3T3-L1 adipocytes (Cold Spring Harb. Protoc. 2016, 2016, pdb-prot083675). Briefly, cells were lysed with ice cold HES buffer (250 mM sucrose, 20 mM HEPES, 1 mM EDTA, pH7.4) containing a cocktail of protease and phosphatase inhibitors (Roche Diagnostic) and centrifuged for 5 min (500 g at 4° C.) to pellet out nuclei. The remaining supernatant (containing cytosolic and membrane bound proteins) was collected. For all other immunoblotting experiments, RIPA lysis buffer containing protease and phosphatase inhibitors was used, and protein was isolated via centrifugation at 17,000 g for 10 min at 4° C. For all samples, protein concentration of the lysates was measured using the BCA Protein Assay Kit (Pierce Biotechnologies). Diluted lysates were added to Laemmli sample buffer and denatured at 95° C. for 5 min. After sample preparation, proteins were resolved via SDS-polyacrylamide gel electrophoresis (4-12%) using NuPAGE 4-12% Bis-Tris gels (Invitrogen), and transferred to nitrocellulose membranes. Blots were placed in blocking buffer (LI-COR Biosciences) and incubated overnight at 4° C. with primary antibodies at the recommended dilution. Blots were washed 3 times (5 minutes per wash) in TBST (20 mM Tris, pH 7.6, 140 mM NaCl, and 0.1% Tween-20), and then incubated with the appropriate IRDye-conjugated secondary antibody (LI-COR Biosciences) diluted in blocking buffer and incubated at room temperature for an hr. […] Bands were quantified using Image Studio™ (LI-COR Biosciences).
A general note: A western blot detects proteins with antibodies after separation by electrophoresis.

Another assay has as its system 3T3-L1-shMCT1 cells. Briefly: Glucose uptake (Glucose Uptake-Glo) in MCT1 knockdown cells. How it is done:
Cell Line Development: Lenti plasmid vectors containing shRNA targeting MCT1 or a shScramble sequence were purchased from Genocopia. Lentiviral particles were produced using HEK293T cells and a third-generation packaging system, MISSION Lentiviral Packaging Mix, as per manufacturer's (Sigma-Aldrich) recommendations. To generate shMCT1 cells, 3T3-L1 cells were seeded and transduced with optimized titers of freshly harvested lentivirus. 12 hr after transduction, medium was changed, and cells were allowed to recover for 24 h before being placed under antibiotic selection (2 μg/mL puromycin [Clontech]) for 3-6 days. Cells surviving antibiotic selection were harvested for both reverse transcription quantitative chain polymerase reaction (RT-qPCR) and immunoblotting analyses.
Glucose Uptake: 3T3-L1 cells were seeded and differentiated in clear bottom 96-well plates (Corning®). After differentiation, cells were treated with or without […] AZD3965 for 24 hr, 48 hr or 72 hr as illustrated in FIG. 7 (schematic outline of experimental procedure). The cells were incubated in serum free media the night before performing the assay. […] Glucose Uptake was measured using the Glucose Uptake-Glo™ Assay (Promega®) according to the manufacturer's protocol. The data generated were normalized by dividing the relative luminescence units (RLU) measured in insulin stimulated wells by vehicle treated controls. […]

Assay [3] concerns differentiated 3T3-L1 cells. Description: NADP+ + NADPH bioavailability (NADP+/NADPH-Glo). Particulars: 1 μM. Here is the method: NADP++NADPH Bioavailability: 3T3-L1 cells were seeded, differentiated and treated with or without AZD3965 (1 μM) for up to 72 hr in clear 96 well plates (Corning®). Following treatment, the NADP+/NADPH-Glo™ (Promega®) kit was used to measure the total NADP++NADPH concentration within each sample according to the manufacturer's instructions. In the presence of either NADP+ or NADPH, an enzyme ‘Reductase’ reduces a pro-luciferin reductase substrate to form luciferin which emits a luminescent signal directly proportional to the quantity of NADP+ and NADPH. Luminescence was read on a spectrophotometer (FlexStation 3; Molecular Devices).

For `Cc1[nH]nc(C(F)(F)F)c1Cc1sc2c(c1C(=O)N1C[C@](C)(O)CO1)c(=O)n(C)c(=O)n2C(C)C` [AZD3965, 5-[[(4S)-4-hydroxy-4-methyl-2-isoxazolidinyl]carbonyl]-3-methyl-1-(1-methylethyl)-6-[[5-methyl-3-(trifluoromethyl)-1H-pyrazol-4-yl]methyl]-thieno[2,3-d]pyrimidine-2,4 (1H, 3H)-dione], in assay [1], the “expression of Ki67” value was “significant increase”. Also, the “total CDK1 protein expression” value in assay [2] (1 μM, up to 72 hr) is recorded as “no change”. Moreover, the “CDK1 phosphorylation at Tyr15” value in assay [2] (1 μM, up to 72 hr, normalized to total CDK1 and α-tubulin) is “significant decrease”. The HSL protein expression entry in assay [2] (mature adipocytes, 24-72 hr treatment) is on record as “significant decrease”. The FABP4 protein expression result in assay [2] (mature adipocytes, 48 hr treatment) is “significantly increased”; in assay [2] (mature adipocytes, by 72 hr treatment), “this increase was attenuated”. Moreover, the PPARγ protein expression result in assay [2] (mature adipocytes, up to 72 hr treatment) is “no changes”. Moreover, the insulin-stimulated glucose uptake result in the assay with 3T3-L1-shMCT1 cells (1 μM for 72 hr, 175 nM insulin) is given as “do not respond to insulin as robustly as WT 3T3-L1 cells or show any increase”. For the same compound, the “basal, non-insulin stimulated glucose uptake” value in the assay with 3T3-L1-shMCT1 cells (1 μM, up to 72 hr) is “no significant changes”. In assay [3] (24 hr, 48 hr and 72 hr), the “concentration of NADP+/NADPH cofactor species” value is given as “subtle, yet significant decrease”. Moreover, in assay [3] (up to 72 hr), the “decrease in intracellular concentrations of NADP+ (H)” value is “less than 15%”.
